{
  "source": "patent US20210161999A1",
  "about": "“COMPOSITIONS AND METHODS RELATED TO OVERCOMING INNATE IMMUNE BARRIERS TO CANCER IMMUNOTHERAPY” (Health Research, Inc., priority 2018, published 2021)",
  "key": {"[1]": {"tested_on": "PMN suppressor phenotype induced by malignant effusions", "experiment": "Coculture of PMN and stimulated T cells with malignant effusions (pleural fluid, ascites) of various metastatic cancers; T cell proliferation", "assay_type": "cell-based, human", "conditions": "Cp40-treated malignant pleural fluid/ascites from various metastatic cancers (n=7)", "from_the_text": "We analyzed whether the PMN suppressor phenotype induced by EOC ascites would also occur following PMN exposure to other malignant effusions. We observed a similar PMN suppressor phenotype when PMN and anti-CD3/CD28-stimulated T cells were cocultured with malignant pleural and ascites supernatants from patients with a number of metastatic cancers (18/20 samples induced a PMN suppressor or intermediate suppressor phenotype). Using samples that met the suppressor definition (Table 3), the PMN suppressor phenotype induced by malignant pleural and ascites was also abrogated by Cp40-treatment (FIG. 3K).\nPatients and Specimens. Participants included healthy donors, control female patients with a benign adnexal mass undergoing resection surgery, and cancer patients with malignant effusions. Healthy donors (n=4) were Caucasian, aged 26-51, and equally divided between sexes. […]\nFreshly isolated T cells (1e5) were stimulated with anti-CD3/CD28 Dynabeads (2.5 μl; Thermo Fisher Scientific) and cocultured with autologous PMN (1:1) and ascites supernatants (50% final well volume) in an incubator at 37° C., 5% CO2. […] Cells were harvested onto a Filtermat and counted on a Beta counter. Results are expressed as net cpm [calculated by subtracting the average cpm of unstimulated T cells from the average cpm of stimulated T cells]. […]"}, "[2]": {"tested_on": "PMN", "experiment": "PMN viability (PI neg, Annexin-V neg) after exposure to treated ascites", "conditions": "24 h exposure to Cp40-treated ascites", "procedure": "(§1) Where indicated, cells were pelleted for immunophenotyping and supernatants were saved for ELISA at time points throughout coculture. Viability was assessed by staining with Annexin V and/or PI (Dead Cell Apoptosis Kit, V13241, Thermo Fisher Scientific), following the manufacturer's protocols. For surface phenotyping and intracellular staining, cells were stained in buffer (DPBS, 1% BSA, 2 mM EDTA) and Cytofix/Cytoperm buffer kit (BD Biosciences), respectively, following the manufacturer's protocols. Data were analyzed using FCS Express 6."}, "[3]": {"experiment": "PMN viability (PI neg, Annexin-V neg) after exposure to treated ascites", "conditions": "human, PMN (neutrophils) exposed to peptide-treated ascites", "procedure": "as §1"}, "[4]": {"tested_on": "T cells", "experiment": "Surface expression of PD-1, LAG-3 and CTLA-4 on stimulated T cells after coculture (flow cytometry)", "assay_type": "cell-based, human", "conditions": "coculture with Cp40-ASC and PMN, compared to unstimulated (n=6)", "experimental": "FIG. 6. Combination of ascites and PMN prevents T cell activation and is independent of exhaustion. T cells (CD3^+) and PMN were used in autologous coculture at 1:1. PMN and/or ascites supernatants (ASC; 50% final well volume) were added to anti-CD3/CD28-stimulated T cells. At 24, 48, and 72 h, T cells were analyzed for surface and intracellular expression of markers for activation, co-stimulation, and function. Surface expression of A) CD62L, B) CD69, C) CD4OL, and D) CD107a were evaluated at baseline (on y-axis) and at 24, 48, and 72 h (n=2). E-M) PD-1, LAG-3, and CTLA-4 expression was evaluated (n=4). CD8^+ T cells at 72 h are represented here in representative MFI overlays (E-G) and quantification (H-J); unstimulated T cells in media, grey solid; anti-CD3/CD28-stimulated, black dashed line; anti-CD3/CD28-stimulated+PMN, purple solid line; anti-CD3/CD28-stimulated+ASC, orange solid line; anti-CD3/CD28-stimulated+ASC+PMN, green solid line. […] N) At 72 h, intracellular expression of IFN-gamma was reduced as compared to stimulated alone (n=3). O-P) Combination of ASC and PMN reduced anti-CD3/CD28-stimulated T cell IL-2 levels (pg/mL) in supernatants to ND after 24 (O) and 72 h (P) of coculture (n=4). Background levels of PMN or ASC were ND; ND=non-detectable. Q) CTL activity of NY-ESO-1157-165-specific CD8^+ T cells directed at SK29 target cells pulsed with the NY-ESO-1 peptide was unaffected by coculture with ASC and/or PMN (n=3). Symbols represent individual samples (n) and bars represent SEM. Statistical comparisons were by Mann-Whitney (*, p<0.05; **, p<0.01; ***, p<0.001; ns, not significant). Results were consistent between CD4^+ and CD8^+ T cells.\nData were analyzed using FCS Express 6.\nFc receptors were blocked to prevent non-specific antibody binding prior to staining (15 min, 4° C.; anti-mouse CD16/CD32, clone 2.4G2; BD Biosciences). For phenotyping of PMN, antibodies targeted to human CD45 (clone REA747), CD15 (VIMC6) (Miltenyi Biotec, Inc.), CD63 (H5C6), CD66b (G10F5), and CD35 (Ell) (Biolegend) were used. […]"}},
  "note": "Entries after “also recorded” stand apart in the source; their conditions may differ.",
  "data": [
    {"smiles": "CC[C@H](C)[C@H](NC(=O)[C@H](N)Cc1ccc(O)cc1)C(=O)N[C@H]1CSSC[C@@H](C(=O)N(C)[C@H](C(N)=O)[C@@H](C)CC)NC(=O)[C@H](CCCNC(=N)N)NC(=O)[C@H](Cc2c[nH]cn2)NC(=O)[C@H](C)NC(=O)CN(C)C(=O)[C@H](Cc2c[nH]c3ccccc23)NC(=O)[C@H](CC(=O)O)NC(=O)[C@H](CCC(N)=O)NC(=O)[C@H](Cc2cn(C)c3ccccc23)NC(=O)[C@H](C(C)C)NC1=O", "note": "[Cp40]", "values": [
      {"measurement": "effect on PMN suppressor phenotype induced by malignant effusions", "setting": "[1]", "result": "abrogated by Cp40-treatment in all of the tested samples"},
      {"measurement": "neutrophil viability versus untreated or scramble peptide-treated ascites", "setting": "[2]", "result": "similar"},
      {"measurement": "viability at 24 h, 20 µM", "setting": "[3]", "result": "68 ± 8", "unit": "%"},
      {"measurement": "CTLA-4 expression on stimulated T cells", "setting": "[4]", "result": "showed an upwards trend; also recorded: upregulated relative to unstimulated T cells"},
      {"measurement": "LAG-3 expression on stimulated T cells", "setting": "[4]", "result": "unaffected; also recorded: did not result in upregulation"},
      {"measurement": "PD-1 expression on stimulated T cells", "setting": "[4]", "result": "unaffected; also recorded: did not result in upregulation"}
    ]}
  ]
}
